Data from patent US20260053778A1, “USE OF NOVEL PPAR ACTIVITY MODULATOR FOR PREVENTION, AMELIORATION OR TREATMENT OF DEGENERATIVE BRAIN DISEASES” (POSTECH RESEARCH AND BUSINESS DEVELOPMENT FOUNDATION, priority 2022, published 2026).

Columns and labels:
[1] = test system: RAW 264.7 cell line; test: Cell viability assay (MTT), RAW 264.7; format: cell-based; settings: RAW 264.7, 48 h, at higher concentrations
Procedure: Cell viability was measured by a chromogenic assay that biologically reduces 3-(4,5-dimethyl-thiazol-2-yl)-2,5-diphenyltetrazolium bromide (MTT) to formazan in living cells. Briefly, cells were cultured in 96-well plates in a final volume of 100 μL. After 24 h, the culture medium was replaced with fresh medium containing DTMB compound, and the cells were cultured for another 48 h. Next, MTT (dissolved in PBS at 5 mg/mL) was added to the culture medium. The cells were cultured in the dark at 37° C. for 1 h, and then the supernatant was removed from the wells. The formazan crystals were dissolved by adding total MTT solvent (4 mM HCl and 0.1% Nonidet P-40, both dissolved in isopropanol), and the absorbance was measured at 570 nm using a microplate reader, Infinite 200 Pro NanoQuant microplate reader (TECAN, Switzerland).

[2] = biological target: T1, HIS-tagged recombinant PPAR α protein (Homo sapiens, UniProt Q07869); test: CNBr-drug and protein binding experiment, PPARα; settings: Western blotting after 24 h incubation
T1 sequence (Q07869 239-466 limits assumed): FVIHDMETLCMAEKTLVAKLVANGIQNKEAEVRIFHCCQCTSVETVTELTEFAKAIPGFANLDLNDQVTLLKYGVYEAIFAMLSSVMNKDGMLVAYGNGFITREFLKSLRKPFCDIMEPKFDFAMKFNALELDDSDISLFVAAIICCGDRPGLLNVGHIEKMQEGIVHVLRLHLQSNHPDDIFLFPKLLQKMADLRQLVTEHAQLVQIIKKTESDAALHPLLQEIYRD
Procedure: Since the computer prediction program predicted that DTMB binds to PPAR transcription factors, CNBr-drug and protein binding experiments were conducted to confirm whether DTMB actually binds to PPAR. To determine the actual degree of drug-protein binding, the reaction of the protein of the PPAR-α, β/δ, γ ligand-binding portion with the DTMB drug-bound CNBr beads was confirmed through Western blotting.
Specifically, CNBr Sepharose 4B beads were prepared and activated according to the instructions. 100 mg of CNBr-activated Sepharose 4B beads were incubated with drugs or DMSO at 4° C. for 18 h. The drug-bound beads reacted with HIS-tagged recombinant PPAR α, β/δ, and γ proteins. After 24 h of incubation, Western blotting experiments were performed to confirm whether the recombinant proteins bound to the drug-bound beads.

[3] = test system: 5×FAD mice; test: Aβ monomer Western blot and filter trap assay of brain lysates; format: in vivo, mouse; settings: brain tissue lysates, 6e10 Western blot
Procedure: (§1) To investigate the soluble and insoluble Aβ components, two extraction steps were performed. Left hemisphere samples were homogenized at a concentration of 100 mg/mL in cold Tris-buffered saline (TBS consisting of 50 mM Tris-pH 7.5 and 150 mM NaCl) with a protease inhibitor cocktail (Thermo Fisher Scientific, Waltham, MO, USA). After centrifugation at 15,000 rpm for 1 hour at 4° C., the supernatant of the sample was used for western blotting. Insoluble proteins were extracted from the pellet by dissolving in 5 M guanidine buffer (5 M guanidine HCl and 150 mM NaCl-pH 7.5). Soluble and insoluble protein samples were stored at −80° C.
The insoluble fraction of the protein lysate from 5×FAD mice was diluted in 1% SDS-PBS and boiled at 95° C. for 5 min. The membrane was pre-equilibrated with 1×TBS. A dot blotter apparatus (Bio-Rad Laboratories, Hercules, CA, USA) was used for sample application, and the 6e10 antibody was used to detect the Aβ content in the brain lysate from 5×FAD mice treated with DTMB. The sample size was 3 mice per group.

[4] = Body weight and organ weight after 12 weeks of treatment; format: in vivo, mouse; settings: DTMB 10 mg/kg orally, 12 weeks (3 months), versus vehicle-treated mice
Procedure: 5×FAD (Tg6799) mice were purchased from Jackson Laboratory (Bar Harbor, ME, USA), and male transgenic mice were mated with B6/SJL hybrid female mice. Genotyping was performed by PCR analysis of tail-cut samples. In this example, 8-week-old female mice were used for drug administration, and wild-type littermates were used as controls. All procedures related to animal behavior experiments were approved by the Institutional Animal Care and Use Committee of Pohang University of Science and Technology (POSTECH IACUC). All animal experiments were performed in accordance with the principles of the Animal Welfare Act, the PHS Animal Welfare Policy, and the NIH Guide for the Care and Use of Laboratory Animals. All mice were maintained under general conditions in the POSTECH animal facility according to institutional guidelines.
To evaluate the effect of DTMB on 5×FAD mice, DTMB (10 mg/kg) and vehicle (1% carboxymethylcellulose and 10% DMSO) were orally administered to four groups (wild type, wild type+DTMB, 5×FAD, and 5×FAD+DTMB) 6 days per week for 3 months.

[5] = test system: RAW 264.7 macrophages; test: NO production inhibition (Griess assay) in LPS-treated macrophages; format: cell-based; settings: LPS-induced
Procedure: Previous studies have reported that all three subtypes of PPAR inhibit inflammatory responses through inhibition of the activity and quantitative changes of the NF-κB transcription factor, a major regulator of inflammatory responses.
First, RAW 264.7 macrophages were cultured in a humidified atmosphere of 37° C. in a 5% CO2 incubator with DMEM containing 10% FBS and 1% penicillin/streptomycin. After inducing an inflammatory response in RAW 264.7 macrophages by LPS treatment, the Griess assay (Promega) was performed according to the manufacturer's instructions to measure the concentration of nitrite.

[6] = test system: 5×FAD mice; test: Western blot and qPCR of APP and β-/γ-secretase in brain tissue; format: in vivo, mouse; settings: DTMB 10 mg/kg orally
Procedure: Aβ peptides are generated from amyloid precursor protein (APP) by the action of β- and γ-secretase. It is possible that DTMB acts on APP processing to inhibit the formation of Aβ aggregates. To investigate this possibility, the protein levels of total APP and components of β- and γ-secretase were measured in the hippocampus and cortex using western blot and qPCR.
as §1
Western blot analysis was performed in the same manner as in Example 2-4 using primary antibodies against nicastrin, pen2 (Cell Signaling Technology, Danvers, MA, USA), Aph1 (Invitrogen), amyloid C-terminal fragment (Santa Cruz Biotechnology, Dallas, TX, USA), and GAPDH (Bethyl Laboratories, Mongomery, TX, USA). Secondary antibodies from rabbit (Promega), rat, and goat (Bethyl Laboratories) were used, and detection was performed using SUPEX ECL reagent (Neuronex, Korea) and ImageQuant LAS-4000 (GE Healthcare, MA, USA) according to the manufacturer's instructions. Integrated blot densities were quantified using ImageJ.

- Binding of PPARα ligand-binding protein to drug-bound CNBr beads [2]: binds to all subtypes of PPAR
- IC50 ([5]; Mus musculus, RAW264.7, Griess reagent): 1230 nM
Compound: COc1ccc(-c2cc(=O)oc3c(C)c(OC(=O)[C@H](Cc4c[nH]c5ccccc45)NC(=O)OC(C)(C)C)ccc23)cc1 [DTMB, [4-(4-Methoxyphenyl)-8-methyl-2-oxochromen-7-yl](2S)-3-(1H-indol-3-yl)-2-[(2-methylpropan-2-yl)oxycarbonylamino]propanoate]
- Cytotoxicity (MTT) [1]: no cytotoxicity
- Amyloid β monomers [3]: not reduced
- Body weight [4]: no change
- Tissue weight [4]: no change
- NO production inhibition compared with PPAR modulators ([5]; at the same concentration): more effectively than WY14643, a PPARα modulator, and rosiglitazone, a PPARγ modulator
- Protein level of β-secretase ([6]; cortex): slightly decreased
- APP protein and mRNA levels ([6]; hippocampus): no changes
- Protein levels of β- and γ-secretase ([6]; hippocampus): no changes
